Data as given in patent US4617187A, “Therapeutic method for treating radiation ulcers” (Eisai Co., Ltd., priority 1983, dated 1986).
Entries after “also recorded” stand apart in the source; their conditions may differ.

Legend:
[1] = system: radiation ulcers; assay: Treatment of radiation ulcers (general statement); type: in vivo; settings: administration to an ulcerated site
[2] = Blepharoirritation test; type: in vivo; settings: 1% in Squalane
[3] = system: skin; assay: Challenge test (Adjuvante & Patch Method); type: in vivo; settings: Induction: 5% in Acetone
Text: |Challenge Induction: 5% Acetone

[4] = system: radiation ulcer; assay: Case 2: treatment of radiation ulcer of lower abdomen after cervical cancer radiation; type: in vivo, patient
Text: This patient was subjected to postoperative radiation for the treatment of cervical cancer 18 years before. […] In the Case, the hyperbaric oxygen therapy, zinc sulfate, injectable glutathione, injectable intaserine and Bendazac ointment were applied intermittently in combination. […] Thus, the coating of a therapeutic preparation to be described in Example 1, which pertains to this invention, was initiated.

[5] = system: skin; assay: Primary skin irritation test; type: in vivo; settings: 1% in Squalane
[6] = system: cardiac muscle; settings: known action, cited from earlier work
[7] = system: Wistar rats; assay: Chronic toxicity, peroral, rats; type: in vivo; settings: forced peroral 6, 60 and 600 mg/kg/day, 26 weeks, female and male Wistar rats
Description: Ubidecarenone was forcedly and perorally administered at 6, 60 and 600 mg/kg/day to female and male Wistar rats continuously over a straight period of 26 weeks.

[8] = system: skin; assay: Cumulative skin irritation test; type: in vivo; settings: 1% in Squalane
[9] = system: Wistar rats; assay: Subacute toxicity, peroral, rats; type: in vivo; settings: peroral 40, 200 and 1,000 mg/kg/day, 5 weeks, male and female Wistar rats
Description: (§1) Ubidecarenone was perorally administered at 40, 200 and 1,000 mg/kg/day to male and female Wistar rats continuously over a period of 5 weeks and also at 60 and 600 mg/kg/day to male and female rabbits continuously over a period of 23 days.

[10] = system: skin; assay: Phototoxicity test; type: in vivo
[11] = system: skin; assay: Patch test; type: in vivo; settings: 1% in Squalane
[12] = system: rabbits; assay: Subacute toxicity, peroral, rabbits; type: in vivo; settings: peroral 60 and 600 mg/kg/day, 23 days, male and female rabbits
Description: as §1

[13] = system: skin; assay: Stability and irritation when applied to the skin (general statement)
[14] = system: skin; assay: Photochallenge (optical challenge) test (Adjuvante Strip method); type: in vivo; settings: Induction: 10% in Acetone
Text: |Photo- Induction: 10% Acetone

[15] = cited from earlier work
[16] = system: radiation ulcers; assay: Case 1: treatment of ulcer in irradiated chest wall after breast cancer; type: in vivo, patient; settings: Case 1, after radiotherapy 40 Gy with oily bleomycin and carmofur ointment; peroral zinc sulfate and injection of intaserine to facilitate wound healing
Text: Person, The patient underwent a surgery on […] left breast cancer. It recurred in their left chest wall seven years later, resulting in the formation of a carcinomatous ulcer. This carcinomatous ulcer became resistant to the cryosurgery and carcinostatic chemotherapy, leading to need for the radiotherapy. The patient was exposed to a total radiation dose of 40 Gy while using oily bleomycin and carmofur ointment in combination with a view toward enhancing the effects of the radiotherapy. […] However, they fell down accidently at this stage and the wound was traumatized and ulcerated again. Thus, cythocrome c was injected and at the same time, Bendazac ointment was applied. […] At this stage, the coating of a therapeutic preparation to be described in Example 1, which pertains to the present invention, was started.

[17] = Case 2, prior treatment applied intermittently in combination, with hyperbaric oxygen therapy

COC1=C(OC)C(=O)C(C/C=C(\C)CC/C=C(\C)CC/C=C(\C)CC/C=C(\C)CC/C=C(\C)CC/C=C(\C)CC/C=C(\C)CC/C=C(\C)CC/C=C(\C)CCC=C(C)C)=C(C)C1=O [Ubidecarenone]
curing of radiation ulcers [1]: excellent curing results; also recorded: radiation ulcers can be successfully cured
Blepharoirritation, Conclusion [2]: Little blepharo-
Challenge, Conclusion ([3]; challenge 1% in Acetone): Little challenge
Challenge, Results ([3]; challenge 1% in Acetone): 0/10
Challenge, Conclusion ([3]; challenge 5% in Acetone): Little challenge
Challenge, Results ([3]; challenge 5% in Acetone): 0/10
change of the ulcer ([4]; Case 2, oral ubidecarenone therapy, 2 months): no change was observed as to the ulcer
Primary irritation, Conclusion [5]: Little skin irri-
Primary irritation, Results [5]: 0.1
ATP-yielding function ([6]; cardiac muscle in an ischemic state): maintain the ATP-yielding function at a high level even when the cardiac muscle is in an ischemic state
disorders of ischemic cardiac muscle tissue [6]: can reduce disorders, which the tissue of ischemic cardiac muscle would develop
drop of heart contraction function [6]: improve the drop of heart contraction function
percentage oxygen utilization of cardiac muscle [6]: can improve the percentage oxygen utilization of cardiac muscle
general appearance, blood, urine test and morphological observation (visual and histological) vs control [7]: no differences were observed
Cumulative skin irritation, Conclusion [8]: Little skin irri-
Cumulative skin irritation, Results [8]: 0.3
general appearance, blood, urine test and morphological observation (visual and histological) vs control [9]: No differences were observed
Phototoxicity, Conclusion ([10]; 1% in Squalane): Little phototoxicity
Phototoxicity, Conclusion ([10]; 10% in Squalane): Little phototoxicity
Patch test, Conclusion [11]: Little skin irri-
Patch test, Results [11]: 0/54
general appearance, blood, urine test and morphological observation (visual and histological) vs control [12]: No differences were observed
irritation to the skin [13]: little irritation to the skin
stability when applied to the skin [13]: good stability
Photochallenge, Conclusion ([14]; challenge 10% in Acetone): Little photo-
Photochallenge, Results ([14]; challenge 10% in Acetone): 0/5
Photochallenge, Conclusion ([14]; challenge conc. 0.5 in Acetone): Little photo-
Photochallenge, Results ([14]; challenge conc. 0.5 in Acetone): 0/5
Photochallenge, Conclusion ([14]; challenge conc. 1 in Acetone): Little photo-
Photochallenge, Results ([14]; challenge conc. 1 in Acetone): 0/5
Photochallenge, Conclusion ([14]; challenge conc. 2 in Acetone): Little photo-
Photochallenge, Results ([14]; challenge conc. 2 in Acetone): 0/5
Photochallenge, Conclusion ([14]; challenge conc. 5 in Acetone): Little photo-
Photochallenge, Results ([14]; challenge conc. 5 in Acetone): 0/5
solubility in oil ([15]; oil): oil-soluble
solubility in water or methanol ([15]; water or methanol): hardly soluble

N[C@@H](CCC(=O)N[C@@H](CS)C(=O)NCC(=O)O)C(=O)O [glutathione]
change of the ulcer [4, 17]: the ulcer was not improved

O=S(=O)([O-])[O-].[Zn+2] [zinc sulfate]
change of the ulcer [4, 17]: the ulcer was not improved
ulcer outcome [16]: the ulcer became cancer-free and an eschar was produced
